Test systems include IGROV1 ovarian; CAKI-1 renal; HS 578T breast; U251 CNS; KM12 colon; SNB-19 CNS; MDA-MB-435; HCT-116 colon; K-562 leukemia; SF-539 CNS; NCI-H522 lung.
Experiment in all cases: NCI tumour cell line growth inhibition, 48 h

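All cell lines were grown in 96-well plates and treated with compound for 48 hours. The concentration for full growth arrest is given as TGI.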

On to `Cc1c(NC2(C)C(=O)N(/N=C/c3ccccc3)N=C2c2ccccc2)n[nH]c1-c1ccccc1` (stereo unspecified), for which the TGI in the test with IGROV1 ovarian, with CAKI-1 renal, in the test with HS 578T breast, in the test with U251 CNS, in the test on KM12 colon and with SNB-19 CNS was above 100 µM throughout. For the same compound, the TGI in the test with MDA-MB-435, in the test with HCT-116 colon, in the test on K-562 leukemia, in the test on SF-539 CNS and in the test with NCI-H522 lung was above 100 µM each time.

As for `CN(C)CCNc1ncnc2nc(-c3ccc4ccccc4c3)[nH]c12`, the TGI in the test with IGROV1 ovarian, in the test on CAKI-1 renal, in the test on HS 578T breast, in the test on U251 CNS, with KM12 colon and in the test on SNB-19 CNS was above 100 µM throughout. Further, the TGI in the test on MDA-MB-435, in the test on HCT-116 colon, with K-562 leukemia and in the test with NCI-H522 lung was above 100 µM each time.

Turning to `COc1ccc(/C=C2\N=C(c3ccccc3)N(C3Nc4cc5c(cc4S3)NC(N3C(=O)/C(=C/c4ccc(OC)cc4)N=C3c3ccccc3)S5)C2=O)cc1` (stereo unspecified), the TGI was above 100 µM with IGROV1 ovarian; above 100 µM with CAKI-1 renal; above 100 µM in the test on HS 578T breast; 63.7 µM in the test on U251 CNS; above 100 µM with KM12 colon; above 100 µM with MDA-MB-435. The TGI is above 100 µM in the test on HCT-116 colon, above 100 µM in the test on K-562 leukemia, 29.2 µM with SF-539 CNS and 45.2 µM in the test on NCI-H522 lung.

As for `C[C@]12CC[C@@H]3c4ccc(OC(=O)c5ccccc5)cc4CC[C@H]3[C@@H]1CC[C@@H]2Oc1c2ccccc2nc2ccccc12`, the TGI was 42.4 µM in the test on IGROV1 ovarian; 21.6 µM with CAKI-1 renal; above 50 µM in the test on HS 578T breast; 15.4 µM in the test with U251 CNS; 44 µM with KM12 colon; 15.5 µM in the test with SNB-19 CNS. For the same compound, the TGI is 12.9 µM in the test on MDA-MB-435, 18 µM in the test on HCT-116 colon, 17.8 µM in the test with K-562 leukemia and 46 µM with NCI-H522 lung.

With `COc1cc(S(=O)(=O)Nc2ccc(-c3csc(N4C(=O)CSC4c4ccccc4)n3)cc2)ccc1Cl` (stereo unspecified), the TGI in the test on IGROV1 ovarian, in the test on CAKI-1 renal, with HS 578T breast, with KM12 colon, in the test with SNB-19 CNS and with MDA-MB-435 was above 100 µM each time. Moreover, the TGI in the test with HCT-116 colon, in the test with K-562 leukemia, in the test with SF-539 CNS and with NCI-H522 lung was above 100 µM each time.

As to `O=S1(=O)c2ccccc2NC(=S)CC1c1ccccc1` (stereo unspecified), the TGI in the test with IGROV1 ovarian, in the test on CAKI-1 renal, with HS 578T breast, in the test with U251 CNS, with KM12 colon and with SNB-19 CNS was above 100 µM each time. The TGI in the test on MDA-MB-435, with HCT-116 colon, with K-562 leukemia and in the test on NCI-H522 lung was above 100 µM each time.

As for `COc1ccc(C2C(C#N)=C(S)N(C3OC(CO)C(O)C(O)C3O)C(c3ccccc3)=C2C(C)=O)cc1` (stereo unspecified), the TGI in the test with IGROV1 ovarian, with HS 578T breast, with U251 CNS, in the test on KM12 colon, in the test with SNB-19 CNS and with MDA-MB-435 was above 100 µM throughout. For the same compound, the TGI with HCT-116 colon is above 100 µM; with K-562 leukemia, above 100 µM; with SF-539 CNS, above 100 µM; in the test on NCI-H522 lung it was 88.9 µM.

As for `COc1cc(C2S/C(=C/c3ccccc3)C(=O)N2c2ccc(Cl)c(Cl)c2)cc(OC)c1OC` (stereo unspecified), the TGI in the test on IGROV1 ovarian was above 100 µM; with CAKI-1 renal it was above 100 µM; with HS 578T breast, above 91.5 µM; in the test with U251 CNS, above 100 µM; in the test on KM12 colon, above 70.3 µM; with SNB-19 CNS it was above 100 µM. Besides, the TGI with MDA-MB-435 is above 90.4 µM; in the test on HCT-116 colon, above 78.9 µM; in the test with K-562 leukemia, above 100 µM; in the test with NCI-H522 lung, 51.4 µM.

For the compound `C[N+](C)(C)c1ncnc2c1ncn2C1CCCCO1` (stereo unspecified), the TGI in the test on IGROV1 ovarian, in the test on CAKI-1 renal, in the test with HS 578T breast, with U251 CNS, with KM12 colon and with SNB-19 CNS was above 100 µM in each case. The TGI in the test on MDA-MB-435, in the test with HCT-116 colon, in the test on K-562 leukemia and with NCI-H522 lung was above 100 µM throughout.

For `O=c1[nH]c2cc3[nH]c4ncccc4c(=O)c3cc2[nH]1`, the TGI in the test with IGROV1 ovarian, in the test with CAKI-1 renal, with HS 578T breast, with U251 CNS, in the test with KM12 colon and with SNB-19 CNS was above 10 µM in each case. The TGI in the test with MDA-MB-435, in the test on HCT-116 colon, in the test on SF-539 CNS and in the test on NCI-H522 lung was above 10 µM throughout.

Values taken from PubChem BioAssay (NCI).
